Measurements: patent US20190256994A1, “Electrochemical Deposition of Elements in Aqueous Media” (LumiShield Technologies Incorporated, priority 2016, published 2019)

Format: physicochemical
Details: 1 M aluminum aqueous solution

Compound | pH
[Cl][Al]([Cl])[Cl] [AlCl3, Aluminum chloride] | 2.04

Details: acid of the ligand; cited from earlier work

Compound | pKa in water
Trifluoroacetate [Trifluoroacetate (TFA)] | 0.52
O=S(=O)(O)C(F)(F)F [Triflate (TfO), Triflate] | -3.43
p-Toluenesulfonate [p-Toluenesulfonate (p-TSA)] | -2.14
Methanesulfonate [Methanesulfonate (MSO)] | -1.61
O=S(=O)(NS(=O)(=O)C(F)(F)F)C(F)(F)F [bis(trifluoromethane) sulfonamide(Tf2N), bis(trifluoromethane) sulfonamide] | Too negative to measure
